# Literature values as cited in patent US6682694B2, “Uncomplexed cyclodextrin solutions for odor control on inanimate surfaces” (The Procter & Gamble Company, priority 1994, dated 2004).
# Details: not given
row,Compound,solubility in water
1,"ClC=CC[N+]12CN3CN(CN(C3)C1)C2.[Cl-] [Dowicil 200, 1-(3-Chlorallyl)-3,5,7-triaza-1-azoniaadamantane chloride]",freely soluble in water

# Same assay, conditions: in water
row,Compound,water solubility
1,OCCc1ccccc1 [2-phenylethanol],about 2%
2,"O=[N+]([O-])C1(Br)COCOC1 [Bronidox L, 5-bromo-5-nitro-1,3-dioxane]",about 0.46%
3,OCCOc1ccccc1 [2-phenoxyethanol],about 2.67%
4,"[H]/N=C(\N/C(=N/[H])NCCCCCCNC(=N)NC(=N)Nc1ccc(Cl)cc1)Nc1ccc(Cl)cc1 [chlorhexidine digluconate, 1,1′-hexamethylene bis(5-(p-chlorophenyl)biguanide), reference compound]",about 70%
5,"O=[N+]([O-])C(Br)(CO)CO [Bronopol, 2-bromo-2-nitropropane-1,3-diol]",about 25%
6,"[H]/N=C(\N/C(=N/[H])NCCCCCCNC(=N)NC(=N)Nc1ccc(Cl)cc1)Nc1ccc(Cl)cc1 [chlorhexidine diacetate, 1,1′-hexamethylene bis(5-(p-chlorophenyl)biguanide), reference compound]",about 1.8%
7,"CC(C)(O)C(Cl)(Cl)Cl [chlorobutanol, 1,1,1-Trichloro-2-methylpropan-2-ol, reference compound]",about 0.8%
8,[Na+].[O-][n+]1ccccc1[S-] [sodium pyrithione],about 50%
9,OCc1ccccc1 [benzyl alcohol],about 4%
10,"CC1(C)C(=O)N(CO)C(=O)N1CO [DMDM hydantoin, 1,3-bis(hydroxymethyl)-5,5-dimethyl-2,4-imidazolidinedione]",more than 50%
